Each block holds one compound with its values, some of them ahead of it. Activity calls are given as the source filed them.
How the values were obtained:
[1] = molecular target: T1, Apoptotic protease-activating factor 1 (Homo sapiens, UniProt O14727); experiment: SAR analysis of small molecule Activators of Apaf-1 in a Fluorescent assay.; type: functional; details: read-out: EC50_Mean;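 note: caspase-3 cleavage of fluorogenic Rh110 DEVD substrate downstream of apoptosome activation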
T1 sequence (O14727 whole entry): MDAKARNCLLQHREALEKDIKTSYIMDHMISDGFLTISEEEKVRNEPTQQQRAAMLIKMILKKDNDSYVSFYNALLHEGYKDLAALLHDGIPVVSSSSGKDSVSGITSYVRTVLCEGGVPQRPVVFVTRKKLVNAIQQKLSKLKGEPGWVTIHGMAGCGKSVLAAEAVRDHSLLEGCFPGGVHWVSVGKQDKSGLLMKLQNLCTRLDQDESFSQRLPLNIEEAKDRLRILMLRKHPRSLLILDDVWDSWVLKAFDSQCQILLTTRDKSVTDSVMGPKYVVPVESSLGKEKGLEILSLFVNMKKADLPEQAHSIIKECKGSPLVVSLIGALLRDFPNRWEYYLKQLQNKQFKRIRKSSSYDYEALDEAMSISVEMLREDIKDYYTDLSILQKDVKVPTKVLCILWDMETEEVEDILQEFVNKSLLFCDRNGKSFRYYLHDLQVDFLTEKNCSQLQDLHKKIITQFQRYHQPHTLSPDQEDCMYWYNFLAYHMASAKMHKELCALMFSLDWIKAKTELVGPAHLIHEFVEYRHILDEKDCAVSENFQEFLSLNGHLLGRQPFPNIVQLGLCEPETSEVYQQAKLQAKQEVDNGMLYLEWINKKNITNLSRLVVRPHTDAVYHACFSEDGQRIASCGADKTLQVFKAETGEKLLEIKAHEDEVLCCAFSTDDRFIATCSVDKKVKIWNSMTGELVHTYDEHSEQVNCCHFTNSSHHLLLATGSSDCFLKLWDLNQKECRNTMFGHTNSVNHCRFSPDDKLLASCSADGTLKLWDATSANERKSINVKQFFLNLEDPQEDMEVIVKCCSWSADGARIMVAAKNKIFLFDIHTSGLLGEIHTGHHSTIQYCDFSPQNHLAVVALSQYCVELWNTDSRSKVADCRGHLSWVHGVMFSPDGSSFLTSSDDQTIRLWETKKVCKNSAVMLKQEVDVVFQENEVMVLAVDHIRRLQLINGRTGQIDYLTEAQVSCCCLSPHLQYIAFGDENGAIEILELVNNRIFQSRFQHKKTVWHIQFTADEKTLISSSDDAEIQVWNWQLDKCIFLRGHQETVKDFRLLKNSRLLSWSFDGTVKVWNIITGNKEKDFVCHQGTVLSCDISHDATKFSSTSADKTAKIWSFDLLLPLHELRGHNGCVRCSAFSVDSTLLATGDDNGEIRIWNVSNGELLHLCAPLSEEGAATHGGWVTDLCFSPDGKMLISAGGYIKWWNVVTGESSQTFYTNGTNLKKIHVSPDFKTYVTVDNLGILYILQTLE

[2] = molecular target: Diacylglycerol lipase-beta (Mus musculus, UniProt Q91WC9); experiment: Late stage assay provider results from the probe development effort to identify inhibitors of diacylglycerol lipase, beta (DAGLb): fluorescence-based dose-response biochemical gel-based competitive Activity-Based Protein Profiling (ABPP) inhibition of DAGLb in vitro.; type: functional
Chain of Diacylglycerol lipase-beta (Q91WC9 whole entry): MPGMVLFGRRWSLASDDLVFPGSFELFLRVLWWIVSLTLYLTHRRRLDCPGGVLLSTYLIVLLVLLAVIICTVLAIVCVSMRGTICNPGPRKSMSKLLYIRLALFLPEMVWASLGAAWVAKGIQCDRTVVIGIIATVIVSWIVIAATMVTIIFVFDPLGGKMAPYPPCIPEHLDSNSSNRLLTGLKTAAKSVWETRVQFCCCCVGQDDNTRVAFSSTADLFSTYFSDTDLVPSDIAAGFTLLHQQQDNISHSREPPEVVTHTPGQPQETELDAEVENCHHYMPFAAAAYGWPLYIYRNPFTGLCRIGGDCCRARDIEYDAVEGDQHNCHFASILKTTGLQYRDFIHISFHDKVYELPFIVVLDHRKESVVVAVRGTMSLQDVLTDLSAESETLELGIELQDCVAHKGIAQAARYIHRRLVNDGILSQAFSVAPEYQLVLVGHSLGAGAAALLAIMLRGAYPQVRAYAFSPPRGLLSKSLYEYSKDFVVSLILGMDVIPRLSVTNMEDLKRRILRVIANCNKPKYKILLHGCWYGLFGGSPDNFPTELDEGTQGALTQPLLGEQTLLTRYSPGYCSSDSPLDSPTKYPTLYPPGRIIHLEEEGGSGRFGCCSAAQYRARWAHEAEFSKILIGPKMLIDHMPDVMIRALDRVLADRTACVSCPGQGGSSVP

[3] = Counterscreen for inhibitors of Trypanosoma brucei methionyl tRNA synthetase (MetRS): Luminescence-based cell-based high throughput dose response assay to identify compounds that are cytotoxic to Jurkat human T lymphocyte cells.; type: functional
[4] = molecular target: T2, Microphthalmia-associated transcription factor (Homo sapiens, UniProt O75030); experiment: TRPM1 promoter luciferase signal decrease, dose response, MITF inhibitor project, cell-based, SK-MEL-5, cherry-picked, set 3 (AID 493073); type: functional
T2 sequence (O75030 whole entry): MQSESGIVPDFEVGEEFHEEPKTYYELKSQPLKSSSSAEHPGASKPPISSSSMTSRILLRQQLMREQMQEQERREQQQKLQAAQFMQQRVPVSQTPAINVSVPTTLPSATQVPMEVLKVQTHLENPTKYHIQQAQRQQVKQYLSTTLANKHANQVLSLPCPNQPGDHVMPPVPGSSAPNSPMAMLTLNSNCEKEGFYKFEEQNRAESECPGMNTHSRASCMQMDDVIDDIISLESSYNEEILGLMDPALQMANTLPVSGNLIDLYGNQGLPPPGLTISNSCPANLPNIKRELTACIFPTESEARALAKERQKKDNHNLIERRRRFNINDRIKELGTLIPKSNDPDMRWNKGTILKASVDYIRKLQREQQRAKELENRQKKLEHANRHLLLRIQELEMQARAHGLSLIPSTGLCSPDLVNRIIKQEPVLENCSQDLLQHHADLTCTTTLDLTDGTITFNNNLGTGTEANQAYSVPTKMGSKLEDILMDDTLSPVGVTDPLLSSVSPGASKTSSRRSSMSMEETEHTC

[5] = Shn3 3'UTR reporter inhibitors, dose response, cell-based, Clone20 osteoblasts, firefly luciferase, cherry-picked (AID 624132); type: functional;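 note: firefly luciferase luminescence from reporter carrying the Shn3 3'UTR in osteoblasts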
[6] = HepG2 cell cytotoxicity, dose response, cytotoxicity control for Shn3 inhibitor project, CellTiter-Glo, cherry-picked (AID 624134); type: functional, cell-based
[7] = molecular target: Photoreceptor-specific nuclear receptor (Homo sapiens, UniProt Q9Y5X4); type: functional, cell-based;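 note: CHO-S cells with Gal4-NCOR and VP16-NR2E3 two-hybrid luciferase reporter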
Chain of Photoreceptor-specific nuclear receptor (Q9Y5X4 whole entry, the tested form may be a part): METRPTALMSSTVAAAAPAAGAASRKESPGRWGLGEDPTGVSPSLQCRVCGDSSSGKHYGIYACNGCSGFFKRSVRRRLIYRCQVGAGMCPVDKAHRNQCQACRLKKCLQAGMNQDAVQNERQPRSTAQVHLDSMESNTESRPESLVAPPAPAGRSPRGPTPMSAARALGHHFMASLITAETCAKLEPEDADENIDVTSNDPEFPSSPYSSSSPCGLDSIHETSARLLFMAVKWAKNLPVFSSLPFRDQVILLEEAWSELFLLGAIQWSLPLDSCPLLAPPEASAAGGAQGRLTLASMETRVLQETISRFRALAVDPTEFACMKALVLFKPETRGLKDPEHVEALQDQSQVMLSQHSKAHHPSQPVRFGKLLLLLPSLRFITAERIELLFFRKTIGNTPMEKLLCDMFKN

[8] = molecular target: T3, Interleukin-8 (Homo sapiens, UniProt P10145); experiment: Dose Response confirmation of uHTS small molecule hits for cystic fibrosis induced NFkb Inhibitors in a TNFa-induced IL8 counterscreen.; type: functional; details: read-out: IC50_Mean
T3 sequence (P10145 whole entry): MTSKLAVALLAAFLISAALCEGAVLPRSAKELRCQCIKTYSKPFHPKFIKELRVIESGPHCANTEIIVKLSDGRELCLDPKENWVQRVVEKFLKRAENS

[9] = molecular target: T3, Interleukin-8; experiment: Dose Response confirmation of uHTS small molecule hits for cystic fibrosis induced NFkb Inhibitors in a PAF-induced IL8 counterscreen.; type: functional; details: read-out: IC50_Mean
[10] = molecular target: T4, ATP-dependent translocase ABCB1 (Homo sapiens, UniProt P08183); experiment: ABCG2 efflux pump inhibitor potency, dose response, Ig-MXP3 cells, JC-1, flow cytometry, set 2 (AID 504566); type: functional; details: read-out: EC50_MICROM_;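 note: flow cytometry median green fluorescence of retained JC-1 dye; potency of efflux pump inhibition measured as rising substrate retention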
T4 sequence (P08183 whole entry): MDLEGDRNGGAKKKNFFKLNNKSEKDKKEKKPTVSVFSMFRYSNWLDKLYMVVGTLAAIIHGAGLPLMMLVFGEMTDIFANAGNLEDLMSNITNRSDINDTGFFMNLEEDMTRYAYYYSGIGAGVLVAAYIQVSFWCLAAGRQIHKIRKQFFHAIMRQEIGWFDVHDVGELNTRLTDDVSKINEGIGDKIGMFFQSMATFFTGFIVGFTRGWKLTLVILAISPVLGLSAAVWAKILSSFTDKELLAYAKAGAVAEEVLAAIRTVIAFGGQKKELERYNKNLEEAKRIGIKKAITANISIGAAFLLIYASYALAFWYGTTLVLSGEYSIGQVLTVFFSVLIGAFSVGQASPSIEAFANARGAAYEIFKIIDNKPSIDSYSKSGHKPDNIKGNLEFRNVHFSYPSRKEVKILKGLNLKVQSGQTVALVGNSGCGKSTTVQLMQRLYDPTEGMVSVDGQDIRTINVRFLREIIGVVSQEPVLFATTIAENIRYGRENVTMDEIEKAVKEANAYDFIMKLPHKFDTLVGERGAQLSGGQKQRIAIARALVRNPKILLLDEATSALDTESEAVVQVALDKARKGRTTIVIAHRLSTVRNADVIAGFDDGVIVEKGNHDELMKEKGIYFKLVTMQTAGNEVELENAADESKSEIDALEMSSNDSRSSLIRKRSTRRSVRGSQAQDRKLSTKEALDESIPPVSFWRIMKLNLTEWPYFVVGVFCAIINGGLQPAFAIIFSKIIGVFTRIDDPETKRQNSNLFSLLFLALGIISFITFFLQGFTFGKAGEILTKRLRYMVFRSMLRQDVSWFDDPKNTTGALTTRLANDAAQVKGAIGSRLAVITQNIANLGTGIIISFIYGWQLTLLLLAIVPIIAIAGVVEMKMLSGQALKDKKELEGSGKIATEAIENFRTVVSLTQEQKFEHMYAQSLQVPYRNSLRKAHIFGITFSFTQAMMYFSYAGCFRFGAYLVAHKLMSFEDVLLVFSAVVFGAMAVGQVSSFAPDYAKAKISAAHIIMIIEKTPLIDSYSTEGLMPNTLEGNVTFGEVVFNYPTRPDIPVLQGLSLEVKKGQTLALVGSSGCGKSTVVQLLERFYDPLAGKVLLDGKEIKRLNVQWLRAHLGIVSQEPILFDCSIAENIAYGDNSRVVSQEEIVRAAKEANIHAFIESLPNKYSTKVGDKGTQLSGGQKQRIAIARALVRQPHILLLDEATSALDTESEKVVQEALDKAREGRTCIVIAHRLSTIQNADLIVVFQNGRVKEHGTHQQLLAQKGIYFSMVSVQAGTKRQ

[11] = molecular target: T4, ATP-dependent translocase ABCB1; experiment: ABCB1 efflux inhibitor potency, dose response, Jurkat-DNR cells, JC-1, flow cytometry, set 2 (AID 504569); type: functional; details: read-out: EC50_MICROM_;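 note: potency of pump inhibitors that raise cellular JC-1 green fluorescence up to the nicardipine level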
[12] = molecular target: T5, Low molecular weight phosphotyrosine protein phosphatase (Homo sapiens, UniProt P24666); type: functional; details: read-out: IC50_Mean
T5 sequence (P24666 whole entry): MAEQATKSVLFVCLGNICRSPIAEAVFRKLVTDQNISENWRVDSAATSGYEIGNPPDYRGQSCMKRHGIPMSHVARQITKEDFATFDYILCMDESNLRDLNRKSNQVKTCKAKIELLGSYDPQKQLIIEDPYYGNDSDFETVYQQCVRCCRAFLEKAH

[13] = molecular target: T5, Low molecular weight phosphotyrosine protein phosphatase; type: functional; details: read-out: IC50_Mean; remark: listed apart in the source
[14] = molecular target: DNA (cytosine-5)-methyltransferase 1 (Homo sapiens, UniProt P26358); experiment: DNMT1 methyltransferase inhibitors, confirmation, biochemical, fluorescent molecular beacon (AID 602386); type: functional
[15] = molecular target: 26S proteasome non-ATPase regulatory subunit 14 (Homo sapiens, UniProt O00487); experiment: inhibition of proteasome subunit RPN11 – biochemical, fluorescence polarization, uHTS hits, confirmation (AID 602368); type: functional
Chain of 26S proteasome non-ATPase regulatory subunit 14 (O00487 whole entry): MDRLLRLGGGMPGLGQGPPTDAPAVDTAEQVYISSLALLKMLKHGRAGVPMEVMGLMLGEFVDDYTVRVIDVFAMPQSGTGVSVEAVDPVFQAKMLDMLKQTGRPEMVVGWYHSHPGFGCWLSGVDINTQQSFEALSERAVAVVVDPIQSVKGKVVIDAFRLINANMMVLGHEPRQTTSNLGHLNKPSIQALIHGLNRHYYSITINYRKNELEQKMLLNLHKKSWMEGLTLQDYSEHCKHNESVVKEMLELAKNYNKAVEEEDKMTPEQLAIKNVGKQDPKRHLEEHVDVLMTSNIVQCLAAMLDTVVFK

[16] = molecular target: 72 kDa type IV collagenase (Homo sapiens, UniProt P08253); experiment: Dose Response validation of uHTS RPN11 inhibitor hits using a MMP-2 Fluorescence assay.; type: functional
Chain of 72 kDa type IV collagenase (P08253 whole entry): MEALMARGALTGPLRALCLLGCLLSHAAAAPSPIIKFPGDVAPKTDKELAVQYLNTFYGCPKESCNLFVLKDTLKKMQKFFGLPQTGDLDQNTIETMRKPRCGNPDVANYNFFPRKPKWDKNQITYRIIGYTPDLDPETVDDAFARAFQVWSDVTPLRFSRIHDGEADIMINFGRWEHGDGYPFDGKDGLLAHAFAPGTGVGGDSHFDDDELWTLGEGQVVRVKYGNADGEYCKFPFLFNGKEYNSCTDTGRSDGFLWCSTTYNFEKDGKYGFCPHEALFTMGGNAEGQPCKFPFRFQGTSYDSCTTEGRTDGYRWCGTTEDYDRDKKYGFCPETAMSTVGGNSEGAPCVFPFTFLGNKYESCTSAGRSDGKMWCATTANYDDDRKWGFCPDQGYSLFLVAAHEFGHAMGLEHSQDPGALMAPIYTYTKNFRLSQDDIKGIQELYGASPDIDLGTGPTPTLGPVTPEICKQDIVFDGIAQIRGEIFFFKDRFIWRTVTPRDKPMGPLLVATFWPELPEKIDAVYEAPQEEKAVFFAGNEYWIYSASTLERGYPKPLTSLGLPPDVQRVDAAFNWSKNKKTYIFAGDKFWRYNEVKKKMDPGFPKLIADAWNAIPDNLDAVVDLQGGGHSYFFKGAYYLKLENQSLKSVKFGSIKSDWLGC

[17] = molecular target: Prothrombin (Bos taurus, UniProt P00735); experiment: thrombin inhibition, dose response, biochemical, fluorescence polarization, uHTS hits (AID 602369); type: functional
[18] = molecular target: T6, Rac GTPase-activating protein 1 (Homo sapiens, UniProt Q9H0H5); experiment: MgcRacGAP GTPase-activating activity inhibitors, confirmation, biochemical, ADP Hunter fluorescence, primary and confirmatory (AID 624330); type: functional
T6 sequence (Q9H0H5 whole entry): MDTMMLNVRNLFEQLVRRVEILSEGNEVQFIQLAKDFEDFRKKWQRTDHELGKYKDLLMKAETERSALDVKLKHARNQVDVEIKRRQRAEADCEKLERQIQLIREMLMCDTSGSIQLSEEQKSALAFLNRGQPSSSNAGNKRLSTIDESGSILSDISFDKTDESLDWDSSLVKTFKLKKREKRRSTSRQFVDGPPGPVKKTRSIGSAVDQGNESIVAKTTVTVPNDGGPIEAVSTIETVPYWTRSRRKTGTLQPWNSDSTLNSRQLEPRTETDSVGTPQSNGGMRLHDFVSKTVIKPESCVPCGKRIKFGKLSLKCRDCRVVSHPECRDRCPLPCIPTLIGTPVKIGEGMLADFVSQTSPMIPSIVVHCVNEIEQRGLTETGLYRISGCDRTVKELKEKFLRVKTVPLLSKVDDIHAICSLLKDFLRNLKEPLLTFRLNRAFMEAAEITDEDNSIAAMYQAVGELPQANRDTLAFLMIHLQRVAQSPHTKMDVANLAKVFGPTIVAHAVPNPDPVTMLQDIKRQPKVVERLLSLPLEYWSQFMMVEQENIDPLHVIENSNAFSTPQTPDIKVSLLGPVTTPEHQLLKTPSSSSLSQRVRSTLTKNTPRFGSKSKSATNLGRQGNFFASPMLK

[19] = molecular target: T7, Histone-lysine N-methyltransferase NSD2 (Homo sapiens, UniProt O96028); type: biochemical
T7 sequence (O96028 whole entry): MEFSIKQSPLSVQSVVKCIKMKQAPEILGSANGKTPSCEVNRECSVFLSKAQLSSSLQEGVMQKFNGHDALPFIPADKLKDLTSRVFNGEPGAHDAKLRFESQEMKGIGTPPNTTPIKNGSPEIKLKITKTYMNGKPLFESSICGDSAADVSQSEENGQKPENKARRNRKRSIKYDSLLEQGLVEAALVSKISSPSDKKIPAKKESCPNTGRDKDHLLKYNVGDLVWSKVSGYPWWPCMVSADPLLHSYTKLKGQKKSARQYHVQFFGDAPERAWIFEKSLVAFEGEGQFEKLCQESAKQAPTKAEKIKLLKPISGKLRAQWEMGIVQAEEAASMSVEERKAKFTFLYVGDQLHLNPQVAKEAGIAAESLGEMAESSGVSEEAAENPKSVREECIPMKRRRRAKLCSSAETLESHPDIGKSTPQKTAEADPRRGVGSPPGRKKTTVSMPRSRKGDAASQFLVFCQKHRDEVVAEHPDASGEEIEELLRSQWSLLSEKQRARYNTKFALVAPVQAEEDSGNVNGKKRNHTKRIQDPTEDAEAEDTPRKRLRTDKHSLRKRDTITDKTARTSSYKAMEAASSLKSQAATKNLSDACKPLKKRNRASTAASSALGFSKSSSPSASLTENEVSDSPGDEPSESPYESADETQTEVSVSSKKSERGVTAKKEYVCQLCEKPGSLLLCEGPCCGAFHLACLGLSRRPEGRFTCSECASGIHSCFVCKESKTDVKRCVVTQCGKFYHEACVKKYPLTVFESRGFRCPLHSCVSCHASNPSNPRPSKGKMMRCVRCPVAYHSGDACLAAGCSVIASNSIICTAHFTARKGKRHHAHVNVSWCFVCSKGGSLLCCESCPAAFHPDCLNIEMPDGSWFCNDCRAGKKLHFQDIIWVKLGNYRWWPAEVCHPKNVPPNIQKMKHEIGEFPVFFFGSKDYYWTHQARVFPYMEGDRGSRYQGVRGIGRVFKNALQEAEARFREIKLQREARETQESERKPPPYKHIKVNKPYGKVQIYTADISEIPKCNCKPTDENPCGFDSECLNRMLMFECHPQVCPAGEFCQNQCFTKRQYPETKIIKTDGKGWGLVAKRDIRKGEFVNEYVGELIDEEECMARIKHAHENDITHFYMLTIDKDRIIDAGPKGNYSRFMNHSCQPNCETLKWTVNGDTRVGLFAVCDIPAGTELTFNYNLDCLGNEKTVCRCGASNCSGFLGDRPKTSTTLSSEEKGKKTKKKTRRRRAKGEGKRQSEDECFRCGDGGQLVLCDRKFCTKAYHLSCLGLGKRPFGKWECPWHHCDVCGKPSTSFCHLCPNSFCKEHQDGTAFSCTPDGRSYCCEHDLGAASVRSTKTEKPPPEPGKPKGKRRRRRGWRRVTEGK

[20] = molecular target: Nuclear receptor subfamily 5 group A member 2 (Homo sapiens, UniProt O00482); type: functional, cell-based;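 note: HEK293T cells transfected with LRH-1 and a StAR promoter luciferase reporter; potency for inhibitors that lower LRH-1 driven reporter light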
Chain of Nuclear receptor subfamily 5 group A member 2 (O00482 whole entry): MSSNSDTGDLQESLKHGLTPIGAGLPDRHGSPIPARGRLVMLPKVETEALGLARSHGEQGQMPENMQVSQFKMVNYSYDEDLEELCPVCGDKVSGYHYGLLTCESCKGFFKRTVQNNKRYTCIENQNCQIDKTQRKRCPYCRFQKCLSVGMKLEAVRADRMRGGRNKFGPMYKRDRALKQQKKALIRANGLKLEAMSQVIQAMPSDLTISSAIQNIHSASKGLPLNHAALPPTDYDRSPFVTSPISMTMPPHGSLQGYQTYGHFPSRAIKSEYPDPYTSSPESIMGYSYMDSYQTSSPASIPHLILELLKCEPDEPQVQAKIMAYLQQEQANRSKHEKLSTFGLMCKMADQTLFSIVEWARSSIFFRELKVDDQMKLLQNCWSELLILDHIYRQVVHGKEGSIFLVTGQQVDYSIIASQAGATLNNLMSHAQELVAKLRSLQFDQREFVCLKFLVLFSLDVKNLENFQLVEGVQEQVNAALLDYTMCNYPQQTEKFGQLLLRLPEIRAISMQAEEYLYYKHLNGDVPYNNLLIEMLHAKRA

[21] = molecular target: Steroidogenic factor 1 (Homo sapiens, UniProt Q13285); experiment: Counterscreen for inverse agonists of the liver receptor homolog-1 (LRH-1; NR5A2): Luminescence-based cell-based high throughput dose response assay to identify inverse agonists of the Steroidogenic Factor 1 Nuclear Receptor (SF1; NR5A1).; type: functional
Chain of Steroidogenic factor 1 (Q13285 whole entry): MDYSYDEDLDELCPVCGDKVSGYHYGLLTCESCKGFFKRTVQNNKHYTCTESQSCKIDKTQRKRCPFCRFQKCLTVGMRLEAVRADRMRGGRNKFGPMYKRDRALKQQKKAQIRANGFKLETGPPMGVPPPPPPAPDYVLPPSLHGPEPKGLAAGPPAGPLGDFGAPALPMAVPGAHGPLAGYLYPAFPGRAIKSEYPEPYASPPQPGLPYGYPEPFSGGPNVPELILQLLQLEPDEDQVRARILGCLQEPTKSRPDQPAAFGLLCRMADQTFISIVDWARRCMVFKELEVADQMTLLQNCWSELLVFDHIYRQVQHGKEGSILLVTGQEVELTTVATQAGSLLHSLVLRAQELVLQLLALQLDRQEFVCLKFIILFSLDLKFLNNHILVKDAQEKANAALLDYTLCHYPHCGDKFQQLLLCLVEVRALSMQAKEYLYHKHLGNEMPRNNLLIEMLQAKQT

[22] = StAR promoter reporter inhibition counter-screen, dose response, counter-screen for LRH-1 inverse agonist project, cell-based, luminescence, luciferase reporter (AID 651969); type: functional

EC50 [1]: > 100 µM (inactive)
SMILES: Cc1ccc(NCC(C)C(=O)O)cc1C (configuration not stated)

IC50 [2]: 0.052 µM (active)
SMILES: O=C(N1CCCCC1Cc1ccccc1)n1cc(-c2ccc(OC(F)(F)F)cc2)nn1 (configuration not stated)

SMILES: COc1ccc(N=C(S)N2CCC(c3nc4cc(Cl)ccc4[nH]3)CC2)c(OC)c1
IC50 [3]: 83.3 µM (inactive)

SMILES: Cc1cc(C(=O)COc2cccnc2[N+](=O)[O-])c(C)n1-c1ccccc1
AC50 [4]: 1.48 µM (active)
AC50 [5]: 34.8 µM (active)
AC50 [6]: > 70 µM (inactive)
IC50 [7]: 0.517 µM (active)

IC50 [8]: 56.5 µM (inactive)
IC50 [9]: 14.4 µM (inactive)
SMILES: c1cc(-c2cnc3cccnn23)c2cccnc2c1

EC50 [10]: 0.72 µM (active)
EC50 [11]: 2.87 µM (active)
SMILES: COc1ccccc1-c1cc2nc(-c3ccccc3)cc(N3CCN(C(=O)c4ccccc4)CC3)n2n1

IC50 [12]: 13.1 µM (active)
IC50 [13]: 7.48 µM (active)
SMILES: Fc1ccccc1-c1nc(NC2CCCC2)c2ccccc2n1

IC50 [14]: 8.39 µM (active)
IC50 [15]: 32.4 µM (active)
IC50 [16]: > 100 µM (inactive)
IC50 [17]: 52.8 µM (active)
IC50 [18]: 238 µM (active)
AC50 [19]: 4.16 µM (active)
SMILES: CC1=NN(c2ccccc2)C(=O)C1/C=C1\NC(=S)NC1=O (configuration not stated)

SMILES: O=C(CN1C(=O)NC2(CCCCC2)C1=O)NCCc1c[nH]c2ccccc12
IC50 [20]: 10.3 µM (inactive)
IC50 [21]: 5.36 µM (active)
IC50 [22]: 35.9 µM (inactive)

From ChEMBL document CHEMBL1201862, “PubChem BioAssay data set” (2004)
